Data: ChEMBL document CHEMBL5465560, “Selectivity Literature for EUbOPEN Chemogenomic Library” (2024)

Tests used:
[1] = molecular target: T1, Mitogen-activated protein kinase kinase kinase 3 (Homo sapiens) (UniProt Q99759); test: Selectivity interaction (Kinase panel (KiNativ target engagement assay in Jurkat cells)) EUB0001635a MAP3K3; format: cell-based; settings: Selectivity number of off-targets 0.0, Selectivity number of targets 233.0, Source Knowledge https://www.sciencedirect.com/science/article/pii/S2451945619300674?via%3Dihub, at 1 µM
T1 sequence (whole entry): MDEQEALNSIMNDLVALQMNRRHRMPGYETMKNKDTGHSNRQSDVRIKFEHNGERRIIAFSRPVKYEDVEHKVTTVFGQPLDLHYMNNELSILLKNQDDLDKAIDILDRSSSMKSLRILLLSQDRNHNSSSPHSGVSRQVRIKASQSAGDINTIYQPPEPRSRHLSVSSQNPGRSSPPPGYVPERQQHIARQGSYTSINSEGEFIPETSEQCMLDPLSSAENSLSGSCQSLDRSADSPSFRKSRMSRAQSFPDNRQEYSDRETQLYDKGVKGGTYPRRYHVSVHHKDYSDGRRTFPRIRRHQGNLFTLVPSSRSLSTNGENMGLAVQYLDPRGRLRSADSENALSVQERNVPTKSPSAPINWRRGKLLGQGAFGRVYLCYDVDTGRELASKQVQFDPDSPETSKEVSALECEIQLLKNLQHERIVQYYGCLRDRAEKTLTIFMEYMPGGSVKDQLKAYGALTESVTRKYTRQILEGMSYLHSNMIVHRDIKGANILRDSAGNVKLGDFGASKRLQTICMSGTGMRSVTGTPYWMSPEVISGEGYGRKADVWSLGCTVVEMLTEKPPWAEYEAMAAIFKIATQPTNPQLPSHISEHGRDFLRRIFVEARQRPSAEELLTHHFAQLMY

[2] = test system: Tyrosine-protein kinase ABL1 (Homo sapiens), P00519 [F317I]; test: Selectivity interaction (KinomeScan (DiscoverX)) EUB0000229b ABL1; settings: at 1 µM
Tyrosine-protein kinase ABL1 (Homo sapiens), P00519 [F317I], sequence (P00519 whole entry F317I): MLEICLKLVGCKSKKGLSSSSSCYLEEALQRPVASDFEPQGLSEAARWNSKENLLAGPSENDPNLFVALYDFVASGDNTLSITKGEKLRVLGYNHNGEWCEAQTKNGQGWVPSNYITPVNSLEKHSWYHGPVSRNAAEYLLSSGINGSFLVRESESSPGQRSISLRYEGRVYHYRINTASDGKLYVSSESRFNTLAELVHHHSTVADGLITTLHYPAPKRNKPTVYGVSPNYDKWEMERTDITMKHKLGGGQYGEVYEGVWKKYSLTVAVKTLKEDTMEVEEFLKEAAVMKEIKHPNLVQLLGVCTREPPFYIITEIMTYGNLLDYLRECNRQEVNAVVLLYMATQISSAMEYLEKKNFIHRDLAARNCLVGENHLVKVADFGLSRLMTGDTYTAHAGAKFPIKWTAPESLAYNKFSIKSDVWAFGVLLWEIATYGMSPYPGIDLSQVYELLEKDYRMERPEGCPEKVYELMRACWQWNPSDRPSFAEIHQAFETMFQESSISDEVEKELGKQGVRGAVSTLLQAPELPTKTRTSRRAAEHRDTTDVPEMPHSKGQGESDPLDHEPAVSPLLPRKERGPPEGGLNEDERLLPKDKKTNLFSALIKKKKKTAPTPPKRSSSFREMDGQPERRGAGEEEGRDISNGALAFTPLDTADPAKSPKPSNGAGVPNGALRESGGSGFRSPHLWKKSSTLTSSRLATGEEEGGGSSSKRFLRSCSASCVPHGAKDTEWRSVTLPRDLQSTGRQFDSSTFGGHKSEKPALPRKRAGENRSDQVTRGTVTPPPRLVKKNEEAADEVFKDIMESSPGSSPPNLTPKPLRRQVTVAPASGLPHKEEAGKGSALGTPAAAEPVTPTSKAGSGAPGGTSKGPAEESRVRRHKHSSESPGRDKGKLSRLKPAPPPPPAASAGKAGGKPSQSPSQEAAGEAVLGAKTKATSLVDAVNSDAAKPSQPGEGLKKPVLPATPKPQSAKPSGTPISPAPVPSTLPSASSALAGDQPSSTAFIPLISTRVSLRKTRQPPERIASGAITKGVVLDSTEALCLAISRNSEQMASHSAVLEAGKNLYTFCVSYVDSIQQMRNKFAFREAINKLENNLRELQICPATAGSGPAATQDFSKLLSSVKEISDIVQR

[3] = molecular target: T2, Testis-specific serine/threonine-protein kinase 1 (Homo sapiens) (UniProt Q9BXA7); test: Selectivity interaction (KinomeScan (DiscoverX)) EUB0000695a TSSK1B; settings: at 100 nM
T2 sequence (whole entry): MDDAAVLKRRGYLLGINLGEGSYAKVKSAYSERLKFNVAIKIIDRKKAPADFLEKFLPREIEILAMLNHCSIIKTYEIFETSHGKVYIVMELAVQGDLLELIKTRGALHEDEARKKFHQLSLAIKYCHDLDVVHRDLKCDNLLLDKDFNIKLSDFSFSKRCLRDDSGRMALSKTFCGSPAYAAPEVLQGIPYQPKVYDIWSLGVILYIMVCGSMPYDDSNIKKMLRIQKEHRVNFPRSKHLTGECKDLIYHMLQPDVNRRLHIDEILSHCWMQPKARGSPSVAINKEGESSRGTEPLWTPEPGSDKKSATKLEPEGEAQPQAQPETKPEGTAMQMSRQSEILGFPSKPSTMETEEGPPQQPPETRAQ

[4] = molecular target: Beta-2 adrenergic receptor (Homo sapiens, UniProt P07550); test: Selectivity interaction (Panel of kinases, GPCRs, ion channels and transporters (enzymatic assay)) EUB0000223bCl ADRB2
[5] = molecular target: Tyrosine-protein kinase Srms (Homo sapiens) (UniProt Q9H3Y6); test: Selectivity interaction (SelectScreen profiling (Invitrogen)) EUB0000607a SRMS; settings: at 2 µM
Tyrosine-protein kinase Srms (Homo sapiens), sequence (Q9H3Y6 whole entry): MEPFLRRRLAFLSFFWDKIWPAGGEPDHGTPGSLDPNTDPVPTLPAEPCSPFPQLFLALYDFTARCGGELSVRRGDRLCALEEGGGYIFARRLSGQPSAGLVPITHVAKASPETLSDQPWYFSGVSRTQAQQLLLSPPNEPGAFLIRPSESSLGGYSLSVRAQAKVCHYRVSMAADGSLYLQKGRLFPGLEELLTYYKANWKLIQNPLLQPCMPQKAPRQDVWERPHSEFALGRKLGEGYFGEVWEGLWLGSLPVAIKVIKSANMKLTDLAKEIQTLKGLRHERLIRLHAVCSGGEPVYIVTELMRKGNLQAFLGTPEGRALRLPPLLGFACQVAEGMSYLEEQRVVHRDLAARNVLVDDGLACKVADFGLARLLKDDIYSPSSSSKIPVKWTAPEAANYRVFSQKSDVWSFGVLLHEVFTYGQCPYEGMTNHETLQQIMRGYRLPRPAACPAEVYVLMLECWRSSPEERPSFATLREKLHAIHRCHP

[6] = molecular target: Cyclin-dependent kinase 13 (Homo sapiens, UniProt Q14004); test: Selectivity interaction (KinomeScan (DiscoverX)) EUB0000607a CDK13; settings: at 10 µM
Cyclin-dependent kinase 13, sequence (Q14004 whole entry, looked up): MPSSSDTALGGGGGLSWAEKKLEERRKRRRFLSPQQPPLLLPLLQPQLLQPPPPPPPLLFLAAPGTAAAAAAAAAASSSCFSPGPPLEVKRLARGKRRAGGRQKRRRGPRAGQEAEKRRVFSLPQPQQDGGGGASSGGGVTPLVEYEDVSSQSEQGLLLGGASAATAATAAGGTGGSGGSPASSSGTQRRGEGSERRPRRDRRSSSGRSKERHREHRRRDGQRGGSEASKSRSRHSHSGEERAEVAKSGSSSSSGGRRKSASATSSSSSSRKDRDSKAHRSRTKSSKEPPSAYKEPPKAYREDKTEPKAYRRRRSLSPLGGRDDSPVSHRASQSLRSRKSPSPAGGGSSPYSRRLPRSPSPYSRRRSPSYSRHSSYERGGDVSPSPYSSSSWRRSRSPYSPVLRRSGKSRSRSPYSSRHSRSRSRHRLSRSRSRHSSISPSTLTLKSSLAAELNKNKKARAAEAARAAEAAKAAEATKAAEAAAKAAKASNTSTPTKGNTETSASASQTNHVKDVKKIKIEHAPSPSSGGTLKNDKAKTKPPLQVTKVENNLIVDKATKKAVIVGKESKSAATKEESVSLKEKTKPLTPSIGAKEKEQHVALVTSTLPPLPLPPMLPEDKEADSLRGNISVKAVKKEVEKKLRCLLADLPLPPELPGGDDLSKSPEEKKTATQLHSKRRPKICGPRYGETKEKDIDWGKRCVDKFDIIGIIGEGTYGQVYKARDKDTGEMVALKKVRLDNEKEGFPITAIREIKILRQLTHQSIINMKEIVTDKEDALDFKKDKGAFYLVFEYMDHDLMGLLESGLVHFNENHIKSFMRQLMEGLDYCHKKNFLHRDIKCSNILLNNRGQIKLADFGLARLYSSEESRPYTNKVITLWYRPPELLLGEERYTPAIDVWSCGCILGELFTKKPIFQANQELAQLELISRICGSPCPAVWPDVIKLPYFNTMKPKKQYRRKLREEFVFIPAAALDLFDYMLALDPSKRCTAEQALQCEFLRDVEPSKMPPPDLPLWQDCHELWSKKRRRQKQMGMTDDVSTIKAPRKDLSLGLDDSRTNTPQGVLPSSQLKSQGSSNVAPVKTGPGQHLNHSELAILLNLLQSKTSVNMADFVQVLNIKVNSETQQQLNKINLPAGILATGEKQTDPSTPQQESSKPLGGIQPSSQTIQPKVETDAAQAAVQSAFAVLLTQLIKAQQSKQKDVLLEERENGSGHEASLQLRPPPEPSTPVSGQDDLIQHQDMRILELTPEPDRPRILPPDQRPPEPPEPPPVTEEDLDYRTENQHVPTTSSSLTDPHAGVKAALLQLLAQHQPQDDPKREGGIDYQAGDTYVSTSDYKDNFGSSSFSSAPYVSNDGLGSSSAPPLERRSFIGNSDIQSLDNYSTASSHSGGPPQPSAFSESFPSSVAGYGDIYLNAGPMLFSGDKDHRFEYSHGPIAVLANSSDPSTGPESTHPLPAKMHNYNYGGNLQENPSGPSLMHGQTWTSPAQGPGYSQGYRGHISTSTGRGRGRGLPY

[7] = molecular target: T3, Mitogen-activated protein kinase 12 (Homo sapiens) (UniProt P53778); test: Selectivity interaction (SelectScreen profiling (Invitrogen)) EUB0000607a MAPK12; settings: at 2 µM
T3 sequence (whole entry): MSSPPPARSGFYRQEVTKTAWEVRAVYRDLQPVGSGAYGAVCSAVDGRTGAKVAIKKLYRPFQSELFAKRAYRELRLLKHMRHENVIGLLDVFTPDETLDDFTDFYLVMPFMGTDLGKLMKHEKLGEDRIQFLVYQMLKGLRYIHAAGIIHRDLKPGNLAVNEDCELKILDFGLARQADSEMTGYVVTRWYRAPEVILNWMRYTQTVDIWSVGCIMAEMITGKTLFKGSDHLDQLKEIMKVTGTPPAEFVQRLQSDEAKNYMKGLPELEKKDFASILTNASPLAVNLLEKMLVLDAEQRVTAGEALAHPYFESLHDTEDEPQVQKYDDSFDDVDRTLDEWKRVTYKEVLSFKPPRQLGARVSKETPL

[8] = molecular target: Cyclin-dependent kinase 18 (Homo sapiens) (UniProt Q07002); test: Selectivity interaction (ActivX KiNativ screen (kinase selectivity in THP-1 cell lysates)) EUB0000639a CDK18; format: subcellular; settings: lysate, at 1 µM
Cyclin-dependent kinase 18 (Homo sapiens), sequence (Q07002 whole entry): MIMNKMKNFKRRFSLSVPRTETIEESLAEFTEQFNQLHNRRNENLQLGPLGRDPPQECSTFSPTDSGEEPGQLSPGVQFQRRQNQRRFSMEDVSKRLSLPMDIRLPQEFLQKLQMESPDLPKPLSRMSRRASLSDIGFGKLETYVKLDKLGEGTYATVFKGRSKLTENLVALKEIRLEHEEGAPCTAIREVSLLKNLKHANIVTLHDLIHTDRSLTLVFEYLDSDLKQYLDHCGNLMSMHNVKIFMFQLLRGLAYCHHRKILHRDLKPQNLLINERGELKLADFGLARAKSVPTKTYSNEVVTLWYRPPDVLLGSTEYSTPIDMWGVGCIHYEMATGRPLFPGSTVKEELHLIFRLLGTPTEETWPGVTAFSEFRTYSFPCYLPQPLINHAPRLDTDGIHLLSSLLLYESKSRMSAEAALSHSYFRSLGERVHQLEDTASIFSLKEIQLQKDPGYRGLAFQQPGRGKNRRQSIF

[9] = molecular target: Serine/threonine-protein kinase SMG1 (Homo sapiens) (UniProt Q96Q15); test: Selectivity interaction (ActivX KiNativ screen (kinase selectivity in THP-1 cell lysates)) EUB0000639a SMG1; format: subcellular; settings: lysate, at 0.04 µM
[10] = molecular target: Tyrosine-protein kinase BTK (Homo sapiens, UniProt Q06187); test: Selectivity interaction (ActivX KiNativ screen (kinase selectivity in THP-1 cell lysates)) EUB0000639a BTK; format: subcellular; settings: lysate, at 0.01 µM
Tyrosine-protein kinase BTK, sequence (Q06187 whole entry): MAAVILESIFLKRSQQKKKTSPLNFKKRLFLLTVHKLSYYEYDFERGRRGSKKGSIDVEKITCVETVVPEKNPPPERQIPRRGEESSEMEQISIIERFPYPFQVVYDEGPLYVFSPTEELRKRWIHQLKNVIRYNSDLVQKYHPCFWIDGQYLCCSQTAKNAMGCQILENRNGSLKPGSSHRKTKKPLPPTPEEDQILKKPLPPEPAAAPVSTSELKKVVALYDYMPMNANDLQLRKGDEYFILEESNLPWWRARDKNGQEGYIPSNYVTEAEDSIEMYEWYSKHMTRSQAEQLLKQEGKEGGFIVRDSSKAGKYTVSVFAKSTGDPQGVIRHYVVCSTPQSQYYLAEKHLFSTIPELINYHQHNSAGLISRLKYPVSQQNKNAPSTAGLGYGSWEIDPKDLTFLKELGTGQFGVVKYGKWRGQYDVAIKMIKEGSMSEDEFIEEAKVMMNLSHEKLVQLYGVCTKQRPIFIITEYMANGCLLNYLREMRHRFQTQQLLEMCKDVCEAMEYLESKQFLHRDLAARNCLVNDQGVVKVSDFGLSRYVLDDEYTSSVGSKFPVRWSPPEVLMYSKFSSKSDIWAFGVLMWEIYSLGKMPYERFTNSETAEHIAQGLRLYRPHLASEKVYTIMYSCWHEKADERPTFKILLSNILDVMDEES

[11] = molecular target: Serine/threonine-protein kinase 32C (Homo sapiens) (UniProt Q86UX6); test: Selectivity interaction (KinomeScan (DiscoverX)) EUB0000092b STK32C; settings: at 10 µM
Serine/threonine-protein kinase 32C (Homo sapiens), sequence (Q86UX6 whole entry): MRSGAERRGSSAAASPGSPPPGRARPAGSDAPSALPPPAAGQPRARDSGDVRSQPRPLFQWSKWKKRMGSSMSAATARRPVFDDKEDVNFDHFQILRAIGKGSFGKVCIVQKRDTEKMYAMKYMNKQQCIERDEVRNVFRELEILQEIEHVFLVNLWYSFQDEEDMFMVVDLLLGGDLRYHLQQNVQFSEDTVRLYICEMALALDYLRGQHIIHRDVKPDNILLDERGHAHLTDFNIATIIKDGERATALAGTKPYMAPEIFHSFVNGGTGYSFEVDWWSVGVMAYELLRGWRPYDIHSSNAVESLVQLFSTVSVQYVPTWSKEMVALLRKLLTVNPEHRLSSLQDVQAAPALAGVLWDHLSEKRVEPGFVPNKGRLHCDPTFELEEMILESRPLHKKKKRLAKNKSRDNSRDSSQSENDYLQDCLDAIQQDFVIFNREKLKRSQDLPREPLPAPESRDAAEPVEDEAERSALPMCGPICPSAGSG

[12] = molecular target: T4, Phosphatidylinositol 5-phosphate 4-kinase type-2 beta (Homo sapiens) (UniProt P78356); test: Selectivity interaction (Ambit KINOMEscan and KiNATiv profiling in Jurkat cells) EUB0000090b PIP4K2B; format: cell-based; settings: at 1 µM
T4 sequence (whole entry): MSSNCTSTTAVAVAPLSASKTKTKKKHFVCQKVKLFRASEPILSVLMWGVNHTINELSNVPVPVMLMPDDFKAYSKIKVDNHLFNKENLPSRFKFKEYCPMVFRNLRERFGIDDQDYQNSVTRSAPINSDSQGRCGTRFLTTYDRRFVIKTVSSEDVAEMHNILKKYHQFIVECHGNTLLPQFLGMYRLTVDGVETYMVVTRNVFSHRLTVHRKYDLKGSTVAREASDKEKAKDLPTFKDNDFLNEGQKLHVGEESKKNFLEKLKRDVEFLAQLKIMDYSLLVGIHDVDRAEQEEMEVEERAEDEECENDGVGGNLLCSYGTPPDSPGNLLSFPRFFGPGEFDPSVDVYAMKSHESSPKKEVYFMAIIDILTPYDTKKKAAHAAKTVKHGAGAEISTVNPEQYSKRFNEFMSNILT

C=CC(=O)Nc1ccc(C(=O)Nc2[nH]nc3c2CN(C(=O)N[C@H](CN(C)C)c2ccccc2)C3(C)C)cc1
% of engagement [1]: 4.7%

COc1cc(N(C)c2ccnc3ccc(C(F)(F)F)cc23)cc(OC)c1OC
% binding [2]: 96%

Cc1cc(F)c(C(=O)Nc2cccc(-c3nncn3C(C)C)n2)cc1-n1cnc(C2CC2)c1
% of control [3]: 100%

COc1cc(C(=O)N2CC[C@@H](O)[C@@H](N)C2)cc2nc(-c3cc4ccccc4n3CC3CC3)n(C)c12
pXC50 [4]: < 4.5 M

CNC(=O)Nc1ccc(-c2nc(N3CC4CCC(C3)O4)c3cnn(C4CCC5(CC4)OCCO5)c3n2)cc1
% of inhibition [5]: 7%
% of control [6]: 84%
% of inhibition [7]: -2%

CC[C@@H]1[C@H](F)C(=O)N[C@@H]1COc1nccc2cc(C(N)=O)c(OC)cc12 [ZIMLOVISERTIB]
% of inhibition [8]: 3.9%
% of inhibition [9]: 4.1%
% of inhibition [10]: -4.4%

CCC(=O)N1CCN(c2ccc(-n3c(=O)ccc4cnc5ccc(-c6cnc7ccccc7c6)cc5c43)cc2C(F)(F)F)CC1
% of control [11]: 100%

CN(C)C/C=C/C(=O)Nc1ccc(C(=O)N2CCCC(Nc3ncc(Cl)c(-c4c[nH]c5ccccc45)n3)C2)cc1 (configuration not stated)
% of control [12]: 83%
